Drawing on patent publication US12252488B2 (Nimbus Saturn, Inc., priority 2021, dated 2025), this text covers IC50 for 23 molecules.

The structures appear in SMILES notation.

T1 sequence (Q92918 whole entry): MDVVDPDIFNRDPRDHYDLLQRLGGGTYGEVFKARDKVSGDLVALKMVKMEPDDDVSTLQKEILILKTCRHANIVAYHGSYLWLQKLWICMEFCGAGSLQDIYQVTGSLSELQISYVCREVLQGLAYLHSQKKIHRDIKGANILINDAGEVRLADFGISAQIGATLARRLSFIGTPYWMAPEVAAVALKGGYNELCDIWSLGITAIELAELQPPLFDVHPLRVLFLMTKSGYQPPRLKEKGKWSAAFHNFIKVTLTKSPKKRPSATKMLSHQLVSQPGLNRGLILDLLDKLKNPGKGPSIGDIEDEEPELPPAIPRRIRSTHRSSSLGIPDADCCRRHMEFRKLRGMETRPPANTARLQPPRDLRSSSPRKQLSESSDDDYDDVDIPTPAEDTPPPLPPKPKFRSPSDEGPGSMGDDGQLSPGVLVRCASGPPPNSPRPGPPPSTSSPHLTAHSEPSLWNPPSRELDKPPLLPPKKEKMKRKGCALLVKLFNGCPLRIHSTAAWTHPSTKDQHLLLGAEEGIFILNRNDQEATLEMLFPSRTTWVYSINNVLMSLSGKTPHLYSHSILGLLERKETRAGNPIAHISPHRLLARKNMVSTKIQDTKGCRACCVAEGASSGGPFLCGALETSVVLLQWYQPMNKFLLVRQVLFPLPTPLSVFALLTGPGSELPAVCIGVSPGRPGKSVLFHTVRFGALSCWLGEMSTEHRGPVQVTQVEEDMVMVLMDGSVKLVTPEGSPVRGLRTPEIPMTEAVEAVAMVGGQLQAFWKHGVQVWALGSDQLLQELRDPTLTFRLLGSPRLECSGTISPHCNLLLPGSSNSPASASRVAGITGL

This test has as its target T1, HPK1 (Homo sapiens, UniProt Q92918).
T1 construct: purchased Invitrogen
Briefly: HPK1 biochemical enzyme assay (microfluidic mobility shift assay). As to conditions: 1000 uM (1 mM) ATP; Caliper mobility shift; 1.5 nM HPK1; 30 min preincubation; read-out: HPK1 1000UMATP caliper IC50. In outline: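 IC50 values, grouped into activity categories, come from 10-point titrations (top final 3 μM) preincubated 30 min with 1.5 nM enzyme and substrate at pH 7.4. ATP (1 mM), substrate (1 μM) and MgCl2 (5 mM) then added; after 60 min at RT, product separated by microfluidic mobility shift.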
For the molecule `O=C(c1ccc(-c2cc(Nc3ccc(N4CCC5(CCOCC5)CC4)cn3)c3c(=O)[nH]ccc3n2)c(F)c1)N1CCCCC1` [I-148, 2-[2-fluoro-4-(piperidine-1-carbonyl)phenyl]-4-[[5-(3-oxa-9-azaspiro [5.5]undecan-9-yl)-2-pyridyl]amino]-6H-naphthyridin-5-one], the IC50 (in general, the concentration that inhibits the measured activity by half) was above 1000 nM.
The figure for `CCOc1cc(-c2cc(Nc3ccc(N4CCC(O)CC4)cn3)c3c(=O)[nH]ccc3n2)c(F)cc1C(=O)N1CCCCC1` [I-196, 2-[5-ethoxy-2-fluoro-4-(piperidine-1-carbonyl)phenyl]-4-[[5-(4-hydroxy-1-piperidyl)-2-pyridyl]amino]-6H-1,6-naphthyridin-5-one] is 100 to 1000 nM; for `O=c1[nH]ccc2nc(-c3c(F)cccc3F)cc(Nc3ccc(N4CCNCC4)cn3)c12` [I-6, 2-(2,6-difluoro-phenyl)-4-[(5-piperazin-1-yl-2-pyridyl)amino]-6H-1,6-naphthyridin-5-one] it is at most 100 nM; for `CC(C)c1cccc(-c2cc(Nc3ccc(N4CCC(O)CC4)cn3)c3c(=O)[nH]ccc3n2)c1` [I-99, 4-[[5-(4-hydroxy-1-piperidyl)-2-pyridyl]amino]-2-(3-isopropyl-phenyl)-6H-1,6-naphthyridin-5-one] it is 100 to 1000 nM.
Next, `CC(C)c1ccc(F)c(-c2cc(Nc3ccc(N4CCN(C)CC4)cn3)c3c(=O)[nH]ccc3n2)c1` [I-109, 2-(2-fluoro-5-isopropyl-phenyl)-4-[[5-(4-methyl-piperazin-1-yl)-2-pyridyl]amino]-6H-1,6-naphthyridin-5-one]: at most 100 nM.
The figure for `CN(C)C1CCc2cc(F)c(-c3cc(Nc4ccc(N5CCC(O)CC5)cn4)c4c(=O)[nH]ccc4n3)cc21` (centres unmarked) [I-244, 2-[3-(dimethyl-amino)-6-fluoro-indan-5-yl]-4-[[5-(4-hydroxy-1-piperidyl)-2-pyridyl]amino]-6H-1,6-naphthyridin-5-one] is at most 100 nM; for `O=C(c1ccc(-c2cc(Nc3ccc(N4CCC(O)CC4)cn3)c3c(=O)[nH]ccc3n2)c(F)c1)N1CCCC1CO` (centres unmarked) [I-147, 2-[2-fluoro-4-[2-(hydroxy-methyl)pyrrolidine-1-carbonyl]phenyl]-4-[[5-(4-hydroxy-1-piperidyl)-2-pyridyl]amino]-6H-1,6-naphthyridin-5-one] it is 100 to 1000 nM.
As for `CN(C)Cc1ccc(-c2cc(Nc3ccc(N4CCC(O)CC4)cn3)c3c(=O)[nH]ccc3n2)c(F)c1` [I-74, 2-[4-[(dimethyl-amino)methyl]-2-fluoro-phenyl]-4-[[5-(4-hydroxy-1-piperidyl)-2-pyridyl]amino]-6H-1,6-naphthyridin-5-one], the IC50 was at most 100 nM.
Next, `O=C(c1ccc(-c2cc(Nc3ccc(N4CCNCC4)cn3)c3c(=O)[nH]ccc3n2)c(F)c1)N1CC2CCC1CC2` [I-264, 2-[4-(3-azabicyclo [2.2.2]octane-3-carbonyl)-2-fluoro-phenyl]-4-[(5-piperazin-1-yl-2-pyridyl)amino]-6H-1,6-naphthyridin-5-one]: at most 100 nM; `CC(C)c1ccc(Cl)c(-c2cc(Nc3ccc(N4CCC(O)CC4)cn3)c3c(=O)[nH]ccc3n2)c1` [I-101, 2-(2-chloro-5-isopropyl-phenyl)-4-[[5-(4-hydroxy-1-piperidyl)-2-pyridyl]amino]-6H-1,6-naphthyridin-5-one]: at most 100 nM.
Next, `O=C(Nc1ccc(-c2cc(Nc3ccc(N4CCC(O)CC4)cn3)c3c(=O)[nH]ccc3n2)c(F)c1)C1CCC1` [I-152, N-[3-fluoro-4-[4-[[5-(4-hydroxy-1-piperidyl)-2-pyridyl]amino]-5-oxo-6H-1,6-naphthyridin-2-yl]phenyl] cyclobutane-carboxamide]: 100 to 1000 nM; `COc1cc(-c2cc(Nc3ccc(N4CCC(O)CC4)cn3)c3c(=O)[nH]ccc3n2)c(F)cc1C(=O)N1CCCCC1` [I-112, 2-[2-fluoro-5-methoxy-4-(piperidine-1-carbonyl)phenyl]-4-[[5-(4-hydroxy-1-piperidyl)-2-pyridyl]amino]-6H-1,6-naphthyridin-5-one]: above 1000 nM; `O=c1[nH]ccc2nc(-c3cc(OC(F)(F)F)ccc3F)cc(Nc3ccc(N4CCC(O)CC4)cn3)c12` [I-106, 2-[2-fluoro-5-(trifluoro-methoxy)phenyl]-4-[[5-(4-hydroxy-1-piperidyl)-2-pyridyl]amino]-6H-1,6-naphthyridin-5-one]: at most 100 nM.
On to `O=C(c1ccc(-c2cc(Nc3ccc(N4CCC(O)CC4)cn3)c3c(=O)[nH]ccc3n2)c(F)c1)N1CC2CCC1C2` (centres unmarked) [I-137, 2-[4-(3-azabicyclo [2.2.1]heptane-3-carbonyl) 2-fluoro-phenyl]-4-[[5-(4-hydroxy-1-piperidyl)-2-pyridyl]amino]-6H-1,6-naphthyridin-5-one], for which the IC50 is at most 100 nM.
The figure for `O=C(c1cc(F)c(-c2cc(Nc3ccc(N4CCC(O)CC4)cn3)c3c(=O)[nH]ccc3n2)cc1F)N1CCCCC1` [I-231, 2-[2,5-difluoro-4-(piperidine-1-carbonyl)phenyl]-4-[[5-(4-hydroxy-1-piperidyl)-2-pyridyl]amino]-6H-1,6-naphthyridin-5-one] is 100 to 1000 nM; for `O=C(c1ccc(-c2cc(Nc3ccc(N4CCC(O)CC4)cn3)c3c(=O)[nH]ccc3n2)c(F)c1)N1CCOCC1` [I-120] it is 100 to 1000 nM; for `CCCc1cc(Nc2ccc(N3CCC(O)CC3)cn2)c2c(=O)[nH]cnc2n1` [I-60, 5-[[5-(4-hydroxy-1-piperidyl)-2-pyridyl]amino]-7-propyl-3H-pyrido[2,3-d]pyrimidin-4-one] it is 100 to 1000 nM.
Next, `O=c1[nH]ccc2nc(N3CC[C@@H](O)C3)cc(Nc3ccc(N4CCC(O)CC4)cn3)c12` [I-87, 4-[[5-(4-hydroxy-1-piperidyl)-2-pyridyl]amino]-2-[(3R)-3-hydroxy-pyrrolidin-1-yl]-6H-1,6-naphthyridin-5-one]: 100 to 1000 nM.
The figure for `O=c1[nH]ccc2nc(-c3cc(CN4CC5(CCOC5)C4)ccc3F)cc(Nc3ccc(N4CCC(O)CC4)cn3)c12` [I-256, 2-[2-fluoro-5-(6-oxa-2-azaspiro [3.4]octan-2-ylmethyl)phenyl]-4-[[5-(4-hydroxy-1-piperidyl)-2-pyridyl]amino]-6H-1,6-naphthyridin-5-one] is above 1000 nM.
Regarding `Cc1nc2cc(-c3cc(Nc4ccc(N5CCNCC5)cn4)c4c(=O)[nH]ccc4n3)c(F)cc2o1` [I-178, 2-(6-fluoro-2-methyl-1,3-benzoxazol-5-yl)-4-[(5-piperazin-1-yl-2-pyridyl)amino]-6H-1,6-naphthyridin-5-one], the IC50 fell in the range of 100 to 1000 nM.
The figure for `CC(C)c1ccc(F)c(-c2cc(Nc3ccc(N4[C@@H](C)COC[C@@H]4C)cn3)c3c(=O)[nH]ccc3n2)c1` [I-129, 4-[[5-[(3S,5S)-3,5-dimethyl-morpholin-4-yl]-2-pyridyl]amino]-2-(2-fluoro-5-isopropyl-phenyl)-6H-1,6-naphthyridin-5-one] is 100 to 1000 nM; for `NC(=O)c1ccc(-c2cc(Nc3ccc(N4CCC(O)CC4)cn3)c3c(=O)[nH]ccc3n2)c(F)c1` [I-72, 3-fluoro-4-[4-[[5-(4-hydroxy-1-piperidyl)-2-pyridyl]amino]-5-oxo-6H-1,6-naphthyridin-2-yl] benzamide] it is 100 to 1000 nM.
Next, `COC1CCN(C(=O)c2ccc(-c3cc(Nc4ccc(N5CCC(O)CC5)cn4)c4c(=O)[nH]ccc4n3)c(F)c2)CC1` [I-136, 2-[2-fluoro-4-(4-methoxy-piperidine-1-carbonyl)phenyl]-4-[[5-(4-hydroxy-1-piperidyl)-2-pyridyl]amino]-6H-1,6-naphthyridin-5-one]: at most 100 nM.
